From patent US8871753B2, “Macrocyclic compounds and their use as kinase inhibitors” (Incyte Corporation, priority 2008, dated 2014)
Counter-ions that a name gives are not always drawn. Like-named read-outs stand apart in the source and are kept apart here. Each block holds one compound with its values, some of them ahead of it.

Key:
Format in all cases: biochemical
[1] = target: T1, human JAK3 (a.a. 781-1124) (Homo sapiens, UniProt P52333); test: In vitro JAK kinase assay (HTRF, phosphorylation of a biotinylated peptide), JAK3
T1 construct: JAK3 (a.a. 781-1124); His tag (N); made in house; host or cells: insect cells (baculovirus)
Summary of the method: (§1)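 Kinase activity was measured as phosphorylation of a biotinylated peptide, with ATP at 90 μM for JAK1, 30 μM for JAK2 and 3 μM for JAK3. Reactions ran 1 hr at room temperature, were stopped with EDTA plus SA-APC and Eu-Py20, and were read by HTRF after 40 minutes of antibody binding.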

[2] = target: T2, Recombinant Human Anaplastic Lymphoma Kinase (Homo sapiens, UniProt Q9UM73); test: ALK HTRF kinase assay
T2 construct: purchased Invitrogen, Carlsbad, Calif
Summary of the method: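 Biotinylated peptide substrate, recombinant human ALK; detection via europium-chelate antibody to phosphotyrosine paired with streptavidin-APC. Potency expressed as IC50 from four-parameter curve fitting.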

TYK2 = TYK2 (Homo sapiens, UniProt P29597); test: TYK2 kinase inhibition (Table A1)
[3] = target: T3, human JAK2 (a.a. 828-1132) (Homo sapiens, UniProt O60674); test: In vitro JAK kinase assay (HTRF, phosphorylation of a biotinylated peptide), JAK2
T3 construct: JAK2 (a.a. 828-1132); His tag (N); made in house; host or cells: insect cells (baculovirus)
Summary of the method: as §1

[4] = target: T4, human JAK1 (a.a. 837-1142) (Homo sapiens, UniProt P23458); test: In vitro JAK kinase assay (HTRF, phosphorylation of a biotinylated peptide), JAK1; details: read-out: JAK1 IC50
T4 construct: human JAK1 (a.a. 837-1142); His tag (N); made in house; host or cells: insect cells (baculovirus)
Summary of the method: as §1

[5] = Table B1, cells without percent sign
[6] = method AA1 (3 μM ATP) or AA2 (1000 μM ATP), not stated per value
[7] = compound at 500 nM or 1 mM, 90 μM ATP
[8] = method AA1 (30 μM ATP) or AA2 (1000 μM ATP), not stated per value
[9] = method AA1 (90 μM ATP) or AA2 (1000 μM ATP), not stated per value

T3 sequence (O60674 828-1132): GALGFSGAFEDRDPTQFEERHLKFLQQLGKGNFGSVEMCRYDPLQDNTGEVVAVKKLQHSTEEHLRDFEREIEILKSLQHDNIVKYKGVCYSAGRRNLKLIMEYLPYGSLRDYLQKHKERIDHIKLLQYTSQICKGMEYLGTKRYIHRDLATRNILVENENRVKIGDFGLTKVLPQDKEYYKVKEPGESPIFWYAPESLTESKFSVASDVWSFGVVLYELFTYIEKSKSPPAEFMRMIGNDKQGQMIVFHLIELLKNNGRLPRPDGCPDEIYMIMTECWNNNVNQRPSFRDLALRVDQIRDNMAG
T2 sequence (Q9UM73 19-1620): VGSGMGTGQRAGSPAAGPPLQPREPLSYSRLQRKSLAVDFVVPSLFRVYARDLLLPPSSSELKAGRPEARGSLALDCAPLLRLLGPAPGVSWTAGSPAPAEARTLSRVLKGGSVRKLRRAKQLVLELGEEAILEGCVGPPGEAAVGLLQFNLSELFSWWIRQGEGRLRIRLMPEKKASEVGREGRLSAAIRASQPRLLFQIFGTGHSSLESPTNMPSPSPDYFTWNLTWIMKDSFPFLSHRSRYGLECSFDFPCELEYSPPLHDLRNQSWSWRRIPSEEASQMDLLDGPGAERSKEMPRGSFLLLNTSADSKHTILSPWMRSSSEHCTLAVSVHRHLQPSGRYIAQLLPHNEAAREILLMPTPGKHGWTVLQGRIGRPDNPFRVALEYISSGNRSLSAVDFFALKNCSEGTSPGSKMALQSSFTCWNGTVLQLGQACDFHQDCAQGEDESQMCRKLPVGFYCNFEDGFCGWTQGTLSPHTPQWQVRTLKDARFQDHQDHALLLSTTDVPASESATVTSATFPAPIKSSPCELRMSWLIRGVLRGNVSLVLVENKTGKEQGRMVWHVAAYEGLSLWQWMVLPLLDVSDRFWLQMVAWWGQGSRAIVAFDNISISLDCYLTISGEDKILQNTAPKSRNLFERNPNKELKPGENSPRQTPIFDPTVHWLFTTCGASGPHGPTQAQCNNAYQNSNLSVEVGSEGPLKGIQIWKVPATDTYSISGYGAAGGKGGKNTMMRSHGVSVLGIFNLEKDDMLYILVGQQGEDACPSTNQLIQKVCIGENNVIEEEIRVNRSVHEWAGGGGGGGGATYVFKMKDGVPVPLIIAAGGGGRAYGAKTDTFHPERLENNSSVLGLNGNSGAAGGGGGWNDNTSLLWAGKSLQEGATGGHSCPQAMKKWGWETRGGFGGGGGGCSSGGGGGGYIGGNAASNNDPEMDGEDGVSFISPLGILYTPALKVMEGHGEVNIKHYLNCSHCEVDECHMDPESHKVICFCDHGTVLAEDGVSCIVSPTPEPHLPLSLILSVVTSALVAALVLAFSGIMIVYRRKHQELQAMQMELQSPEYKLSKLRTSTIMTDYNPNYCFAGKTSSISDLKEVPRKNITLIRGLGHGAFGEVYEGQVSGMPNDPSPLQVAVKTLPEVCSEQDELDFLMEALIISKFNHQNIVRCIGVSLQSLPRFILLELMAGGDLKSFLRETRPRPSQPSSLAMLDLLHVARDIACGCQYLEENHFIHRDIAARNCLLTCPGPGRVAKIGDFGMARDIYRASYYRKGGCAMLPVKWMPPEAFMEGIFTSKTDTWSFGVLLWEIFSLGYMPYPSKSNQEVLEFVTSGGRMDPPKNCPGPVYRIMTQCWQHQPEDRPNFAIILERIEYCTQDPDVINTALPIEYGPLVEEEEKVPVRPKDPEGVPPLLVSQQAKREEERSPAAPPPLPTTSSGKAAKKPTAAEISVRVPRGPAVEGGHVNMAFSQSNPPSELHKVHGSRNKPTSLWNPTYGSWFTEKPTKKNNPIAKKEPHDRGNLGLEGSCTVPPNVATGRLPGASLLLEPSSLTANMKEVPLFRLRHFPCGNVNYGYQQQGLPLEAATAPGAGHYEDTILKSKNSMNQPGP
Sequence of TYK2 (P29597 whole entry): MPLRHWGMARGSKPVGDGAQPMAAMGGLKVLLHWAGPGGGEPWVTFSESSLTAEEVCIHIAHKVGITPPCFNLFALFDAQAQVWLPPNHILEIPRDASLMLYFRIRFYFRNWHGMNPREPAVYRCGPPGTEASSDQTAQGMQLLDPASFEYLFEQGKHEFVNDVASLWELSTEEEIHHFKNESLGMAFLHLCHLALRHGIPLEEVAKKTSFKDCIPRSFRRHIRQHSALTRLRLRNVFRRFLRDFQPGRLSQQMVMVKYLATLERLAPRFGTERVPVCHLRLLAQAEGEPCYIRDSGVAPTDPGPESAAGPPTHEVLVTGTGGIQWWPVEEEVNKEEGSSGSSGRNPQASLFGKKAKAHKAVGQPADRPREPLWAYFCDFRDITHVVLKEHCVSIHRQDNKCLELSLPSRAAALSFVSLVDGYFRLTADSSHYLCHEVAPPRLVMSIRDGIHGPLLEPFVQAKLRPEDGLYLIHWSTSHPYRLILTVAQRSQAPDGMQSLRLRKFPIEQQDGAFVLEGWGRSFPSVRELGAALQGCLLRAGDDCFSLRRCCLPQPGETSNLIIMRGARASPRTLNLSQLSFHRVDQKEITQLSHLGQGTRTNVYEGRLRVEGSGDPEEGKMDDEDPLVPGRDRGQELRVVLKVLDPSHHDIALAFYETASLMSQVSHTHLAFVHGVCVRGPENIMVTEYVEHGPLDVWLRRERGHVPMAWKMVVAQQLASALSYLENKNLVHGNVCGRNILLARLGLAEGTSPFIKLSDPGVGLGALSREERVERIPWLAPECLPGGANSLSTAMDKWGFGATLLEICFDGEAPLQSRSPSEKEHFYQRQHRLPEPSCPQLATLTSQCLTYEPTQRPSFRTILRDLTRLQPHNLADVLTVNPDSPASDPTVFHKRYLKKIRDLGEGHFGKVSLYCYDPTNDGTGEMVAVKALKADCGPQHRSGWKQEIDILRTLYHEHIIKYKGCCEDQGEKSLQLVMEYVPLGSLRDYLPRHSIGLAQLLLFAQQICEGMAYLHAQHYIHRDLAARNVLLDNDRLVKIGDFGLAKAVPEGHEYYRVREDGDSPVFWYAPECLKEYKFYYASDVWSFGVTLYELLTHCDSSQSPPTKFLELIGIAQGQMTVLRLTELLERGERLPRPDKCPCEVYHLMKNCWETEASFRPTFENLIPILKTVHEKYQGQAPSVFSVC
T4 sequence (P23458 849-1154): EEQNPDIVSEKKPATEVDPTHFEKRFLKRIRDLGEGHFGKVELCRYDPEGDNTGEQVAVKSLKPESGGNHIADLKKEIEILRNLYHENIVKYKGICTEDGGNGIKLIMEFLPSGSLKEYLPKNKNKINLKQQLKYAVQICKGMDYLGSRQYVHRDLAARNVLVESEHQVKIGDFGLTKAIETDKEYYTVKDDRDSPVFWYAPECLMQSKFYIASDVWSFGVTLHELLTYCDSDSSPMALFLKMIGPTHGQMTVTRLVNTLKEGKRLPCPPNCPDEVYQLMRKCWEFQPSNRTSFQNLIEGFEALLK
T1 sequence (P52333 781-1124): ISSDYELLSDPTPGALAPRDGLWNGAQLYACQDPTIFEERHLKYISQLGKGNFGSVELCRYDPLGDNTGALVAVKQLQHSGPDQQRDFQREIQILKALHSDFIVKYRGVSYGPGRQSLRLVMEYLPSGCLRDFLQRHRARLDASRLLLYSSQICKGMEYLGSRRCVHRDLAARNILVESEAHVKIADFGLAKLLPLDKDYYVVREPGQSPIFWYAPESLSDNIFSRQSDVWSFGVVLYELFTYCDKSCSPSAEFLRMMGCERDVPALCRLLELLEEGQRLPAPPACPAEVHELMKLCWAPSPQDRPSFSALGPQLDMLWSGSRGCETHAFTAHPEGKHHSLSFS

Structure (SMILES): O=C(Nc1cccc(Cl)c1)Nc1ccc2cc1CCc1cccc(c1)Nc1ncc(Cl)c(n1)N2 [Example B85, N-(3-Chlorophenyl)-N′-[6-chloro-2,4,8,22-tetraazatetracyclo[14.3.1.1(3,7).1(9,13)]docosa-1(20),3(22),4,6,9(21),10,12,16,18-nonaen-12-yl]urea trifluoroacetate]
IC50 ([1]; Table B1): 39 nM | IC50 [2, 5]: > 1000 nM | IC50 (TYK2; Table B1): 2.2 nM | IC50 ([3]; Table B1): 2.7 nM | IC50 ([4]; Table B1): 1.4 nM

Structure (SMILES): CC(=O)N1CC[C@@H](NC(=O)Nc2ccc3cc2CCc2cccc(c2)Nc2ncc(Cl)c(n2)N3)C1 [Example B177, N-[(3R)-1-Acetylpyrrolidin-3-yl]-N′-[6-chloro-2,4,8,22-tetraazatetracyclo[14.3.1.1(3,7).1(9,13)]docosa-1(20),3(22),4,6,9(21),10,12,16,18-nonaen-12-yl]urea trifluoroacetate]
IC50 ([1]; Table B1): 46 nM | ALK % of inhibition at a concentration of 500 nM or 1 mM ([2]; compound at a concentration of 500 nM or 1 mM (not specified), cells shown as percentage): 20% | IC50 (TYK2; Table B1): 39 nM | IC50 ([3]; Table B1): 5.4 nM | IC50 ([4]; Table B1): 3.1 nM

Structure (SMILES): N#Cc1ccccc1S(=O)(=O)N1CCC(CC(=O)Nc2ccc3cc2CCc2cccc(c2)Nc2ncc(Cl)c(n2)N3)CC1 [Example A208, N-[6-Chloro-2,4,8,22-tetraazatetracyclo[14.3.1.1(3,7).1(9,13)]docosa-1(20),3(22),4,6,9(21),10,12,16,18-nonaen-12-yl]-2-{1-[(2-cyanophenyl)sulfonyl]piperidin-4-yl}acetamide trifluoroacetate]
IC50 [1, 6]: > 200 nM | ALK % of inhibition at a concentration of 500 nM or 1 mM [2, 7]: 17% | IC50 (TYK2): 150 nM | IC50 [3, 8]: 41 nM | IC50 [4, 9]: 1.6 nM

Structure (SMILES): O=C(Nc1ccc2cc1CCc1cccc(c1)Nc1ncc(Cl)c(n1)N2)c1ccc(Cl)cc1 [Example B43, 4-Chloro-N-[6-chloro-2,4,8,22-tetraazatetracyclo[14.3.1.1(3,7).1(9,13)]docosa-1(20),3(22),4,6,9(21),10,12,16,18-nonaen-12-yl]benzamide hydrochloride]
IC50 ([1]; Table B1): 6.7 nM | IC50 [2, 5]: 170 nM | IC50 (TYK2; Table B1): 2.9 nM | IC50 ([3]; Table B1): 1.1 nM | IC50 ([4]; Table B1): 0.79 nM

Structure (SMILES): CC1CN(C(=O)Nc2ccc3cc2CCc2cncc(c2)Nc2ncc(Cl)c(n2)N3)CCN1c1ccccc1 (stereo not shown) [Example B320, N-[6-Chloro-2,4,8,18,22-pentaazatetracyclo[14.3.1.1(3,7).1(9,13)]docosa-1(20),3(22),4,6,9(21),10,12,16,18-nonaen-12-yl]-3-methyl-4-phenylpiperazine-1-carboxamide tris(trifluoroacetate)]
IC50 ([1]; Table B1): > 400 nM | ALK % of inhibition at a concentration of 500 nM or 1 mM ([2]; percentage inhibition of the example compound at a concentration of 500 nM or 1 mM (not specified which)): 57% | IC50 (TYK2; Table B1): > 400 nM | IC50 ([3]; Table B1): > 400 nM | IC50 ([4]; Table B1): 79 nM

Structure (SMILES): CS(=O)(=O)N1CCC(CC(=O)Nc2ccc3cc2CCc2cncc(c2)Nc2ncc(Cl)c(n2)N3)C1 (stereo not shown) [Example A91, N-[6-Chloro-2,4,8,18,22-pentaazatetracyclo[14.3.1.1(3,7).1(9,13)]docosa-1(20),3(22),4,6,9(21),10,12,16,18-nonaen-12-yl]-2-[1-(methylsulfonyl)pyrrolidin-3-yl]acetamide bis(trifluoroacetate)]
IC50 [1, 6]: 44 nM | ALK % of inhibition at a concentration of 500 nM or 1 mM [2, 7]: 29% | IC50 (TYK2): 14 nM | IC50 [3, 8]: 5.9 nM | IC50 [4, 9]: 3.7 nM

Further lines, results first:

IC50 ([1]; Table D1): 13 nM | IC50 ([2]; Table D1, 90 μM ATP): 774 nM | IC50 (TYK2; Table D1): 25 nM | IC50 ([3]; Table D1): 7.3 nM | IC50 ([4]; Table D1): 19 nM
Structure (SMILES): Clc1cnc2nc1Nc1cccc(c1)CSc1cccc(c1)N2 [Example D2, 6-Chloro-15-thia-2,4,8,22-tetraazatetracyclo[14.3.1.1(3,7).1(9,13)]docosa-1(20),3(22),4,6,9(21),10,12,16,18-nonaene trifluoroacetate]

IC50 ([1]; Table D1): 14 nM | IC50 ([2]; Table D1, 90 μM ATP): 910 nM | IC50 (TYK2; Table D1): 4.5 nM | IC50 ([3]; Table D1): 1.2 nM | IC50 ([4]; Table D1): 1.8 nM
Structure (SMILES): O=C(NCc1ccccc1)c1cc2cc(c1)OCCSc1cccc(c1)Nc1nc(ncc1Cl)N2 [Example D51, N-Benzyl-6-chloro-17-oxa-14-thia-2,4,8,24-tetraazatetracyclo[16.3.1.1(3,7).1(9,13)]tetracosa-1(22),3(24),4,6,9(23),10,12,18,20-nonaene-20-carboxamide trifluoroacetate]
